Key:
[1] = ROS-generating activity in cell-free system (H2DCFDA, HRP); type: biochemical; conditions: GSH 0.25 μM or 2.5 μM added to SsnB 10 μM + H2DCFDA + HRP
Experimental: FIG. 2D and FIG. 2E illustrate the ROS generating capacity of SsnB evaluated in a cell-free system containing H2DCFDA (25 μM), horseradish peroxidase (HRP, 5 units/ml), SsnB (10 μM) and glutathione (GSH, 0.25 or 2.5 μM) alone or in various combinations. Optical density (O.D.) at 540 nm were taken at different time points and plotted.
In a reaction system, after the removal of acetate group by cellular esterases and oxidation by reactive oxygen species, the non-fluorescent carboxy-H2DCFDA dye is oxidized to fluorescent molecule carboxy-DCF. To measure the ROS-generating activity of SsnB, the oxidation of carboxy-H2DCFDA dye was monitored in a cell-free system containing carboxy-H2DCFDA dye, horseradish peroxidase (HRP) and SsnB at 540 nm. HRP was used to supply esterase since without esterase carboxy-H2DCFDA is not sensitive to oxidant. […] After addition of HRP (5 units/ml) in the reaction mixture containing SsnB (10 μM)+H2DCFDA dye (25 μM), the OD value increased by 2% in the first 240 sec and further increased by 8% after 15 min compared to H2DCFDA+HRP reaction, indicating the increased oxidation of H2DCFDA to the fluorescent compound.

[2] = system: reactive oxygen species in neuroblastoma cells; experiment: ROS generation, H2DCFDA fluorometry assay; type: cell-based, human; conditions: NAC 1 and 5 mM, SsnB 10 μM; p<0.05 vs SsnB alone
Experimental: The production of reactive oxygen species (ROS) in SsnB-treated neuroblastoma cells was detected by a cell-permeable fluorescence probe H2DCFDA (carboxy-2′,7′-dichlorodihydrofluorescein diacetate) according to the manufacturer's instructions (Invitrogen, Carlsbad, Calif.). Briefly, neuroblastoma cells were cultured in DMEM with 10% FBS in Lab-TekII chamber slides (Fisher Scientific, Pittsburg, Pa.) and treated with SsnB for 2 days (SH-SY5Y and IMR-32 cells), 3 days (NGP cell) or 4 days (SKNF-1 and SK-N-BE(2) cells). After treatments, cells were washed with Hank's buffered salt solution (HBSS; Thermo Scientific, Waltham, Mass.) and incubated with 25 μM of carboxy-H2DCFDA dye for 30 min at 37° C. in dark. Nuclei were counterstained with DAPI. Cells were washed three times with HBSS, mounted with Vectashield mounting medium (Vector Laboratories), and immediately examined under Nikon-E600 fluorescence microscopy equipped with fluorescein isothiocyanate (FITC) filter. Oxidation of H2DCFDA probe occurs almost exclusively in the cytosol, and generates a fluorescence that is proportional to ROS generation in that cell. As a negative control, cells without H2DCFDA dye were used to detect autofluorescence. The fluorometric analysis to detect generation of ROS was performed. Briefly, after treatments with SsnB as mentioned above, cells were labeled with carboxy-H2DCFDA dye (25 μM) for 30 min at 37° C. Cells were trypsinized, washed, and re-suspended in PBS and fluorescence intensity was monitored at excitation wavelength 485 nm and emission wavelength 530 nm with a spectramax spectrophotometer (Molecular Devices, Sunnyvale, Calif.).
SsnB-induced generation of ROS was also evaluated by fluorometry assay. Neuroblastoma cells as treated above were incubated with H2DCFDA dye for 30 min and the fluorescence intensity was measured at 485 nm (excitation wavelength) and 530 nm (emission wavelength).

[3] = system: caspase-3 in neuroblastoma cells; experiment: Cleaved caspase-3 by immunofluorescence and Western blotting; type: cell-based, human; conditions: NAC 1 and 5 mM pretreatment, SsnB 10 μM; SH-SY5Y and SK-N-BE(2) cells
Experimental: For immunofluorescence staining, cells grown in Lab-TekII chamber slides (Fisher Scientific, Pittsburgh, Pa.) were treated with SsnB in complete culture medium. After treatments, cells were washed with 1×PBS, fixed with 4% paraformaldehyde/PBS for 20 min, and permeabilized with 0.2% Triton X-100/PBS for 10 min at room temperature. Cells were washed with 1×PBS for 3 times and blocked with 5% immunoglobulin (IgG) free-bovine serum albumin (BSA; Jackson ImmunoResearch Laboratories, West Grove, Pa.) in 1×PBS for overnight at 4° C. Cells were incubated with antibody raised against active form of caspase-3 (Cell Signaling Technology, Danvers, Mass.) diluted in 2.5% BSA/PBS for overnight at 4° C. Primary antibodies were detected with secondary antibodies conjugated with fluorescein isothiocyanate (FITC; Santa Cruz Biotechnology, Dallas, Tex.) for 2 h at room temperature. After washing with 1×PBS, cells were mounted with antifade Vectashield mounting media (Vector Laboratories, Burlingame, Calif.), and signals were visualized under Nikon-E600 fluorescence microscope. Nuclei were counterstained with 4′,6-diamidino-2-phenylindole (DAPI; Sigma).
After treatment with SsnB, cells were collected, washed with 1×PBS, and lysed with 1× cell lysis buffer (Cell Signaling Technology, Danvers, Mass.) containing phenylmethylsulfonyl fluoride (PMSF) and protease inhibitors (aprotinin and leupeptin) for 30 min on ice, and centrifuged at 12000×rpm for 10 min at 4° C. Supernatant (total cell protein) was collected and stored at −80° C. Protein concentration was determined by bicinchoninic acid method using BCA protein assay kit (Pierce/ThermoScientific, Waltham, Mass.). Equal amount of proteins were diluted with 5× Laemmli samples loading buffer and boiled for five minutes. The proteins were subjected to sodium dodecyl sulfate (SDS)-polyacrylamide gel electrophoresis and analyzed by Western blots. Briefly, after electrophoresis, proteins were transferred on polyvinylidene difluoride (PVDF) membrane at 100 volt for 3 h in cold room. Membrane was blocked with 5% non-fat dry milk/TBST (20 mM Tris-Cl, pH 7.4; 150 mM NaCl with 0.1% Tween-20) for 4 h at room temperature followed by incubation in primary antibodies diluted in 2.5% non-fat dry milk/TBST for overnight at 4° C. After washing with TBST, membrane was incubated with secondary antibodies (horseradish peroxidase-conjugated goat anti-rabbit or goat anti-mouse IgG; Santa Cruz Biotechnology, Dallas, Tex.) diluted in 2.5% non-fat dry milk/TBST for 3 h at room temperature. Signals were detected by chemiluminiscence detection kit (Pierce/Thermo Fisher Scientific, Rockford, Ill.). Primary antibodies used were cleaved caspase-3 and β-actin (Cell Signaling Technology), N-myc and p53 (Santa Cruz Biotechnology).
At cellular level, mitochondria- or receptor (Fas/FasL)-mediated pathways activate caspase signaling cascade which in turn induces DNA damage and initiates programmed cell death (apoptosis). To determine whether SsnB-induced cell death is mediated by caspase activation, Western blotting as well as immunofluorescence assay were performed to detect the active form of caspase-3 in neuroblastoma cells treated with SsnB for 2 days (SH-SY5Y and IMR-32 cells), 3 days (NGP cells) or 4 days (SKNF-1 and SK-N-BE(2) cells). The number of cleaved caspase-3 positive cells were quantitated by ImageJ programme and plotted. […]

[4] = system: human neuroblastoma cell lines (SH-SY5Y, SKNF-1, NGP, IMR-32 and SK-N-BE(2) cells); experiment: MTT cell viability assay; type: cell-based; conditions: NAC 1 mM or 5 mM pretreatment 1 h, then SsnB 10 μM; p<0.05 vs SsnB alone
Text: Human neuroblastoma cell lines (SH-SY5Y, IMR-32, SK-N-BE(2) and SKNF-1 cells) were obtained from The American Type Culture Collection (ATCC; Manassas, Va.), and NGP cells were kind gift from Garrett M. Brodeur (The Children's Hospital of Philadelphia, Philadelphia, Pa.). All cell lines were maintained in complete Dulbecco's Modified Eagle's Medium (DMEM) supplemented with 10% fetal bovine serum (FBS; Atlanta Biologicals, Lawrenceville, Ga.) and 1× antibiotic-antimycotic solution (containing 100 U/ml penicillin, 100 μg/ml streptomycin and 0.25 μg/ml amphotericin B), and grown at 37° C. in a humidified incubator with 5% CO2. Stock solution of SsnB was prepared in dimethyl sulfoxide (DMSO). Cells treated with different concentrations of SsnB in DMEM with 10% FBS were grown for subsequent days. Cells treated with equal volume of DMSO were used as control.
The viability of SsnB-treated cells was determined by MTT assay following manufacturer's instructions (Roche diagnostics corporation, Indianapolis, Ind.). Briefly, cells (1×10^4 cells/well) grown in 96-well cell culture plate were incubated with or without SsnB in 100 μl of complete culture medium with 10% FBS. After treatments, cells were incubated with 10 μl of MTT reagent for 4 h and then incubated overnight in solubilization buffer (100 μl) at 37° C. Absorbance of the formazan product was read at 575 nm in spectramax spectrophotometer (Molecular Devices, Sunnyvale, Calif.). A reference wavelength of 690 nm was used to detect background. The measured absorption directly correlated with the number of viable cells in culture. The experiments were performed in triplicate and repeated at least three times.
MTT assay was carried out to examine the effects of SsnB on viability of all the above listed neuroblastoma cells. After 2 days (SH-SY5Y and IMR-32), 3 days (NGP cells) or 4 days (SKNF-1 and SK-N-BE(2) cells) treatment with SsnB (1, 5, 10 and 20 μM), MTT cell viability assays were performed.

| SMILES | OD value on addition of GSH [1] | ROS levels in SsnB-treated cells [2] | activation of caspase-3 in SsnB-treated cells [3] | viability of SsnB-treated cells [4] |
| --- | --- | --- | --- | --- |
| N[C@@H](CCC(=O)N[C@@H](CS)C(=O)NCC(=O)O)C(=O)O [GSH, glutathione, reference compound] | lowers the OD value in a dose dependent manner | – | – | – |
| CC(=O)NCCSSCCN [NAC, N-acetylcystamine, reference compound] | – | significantly reduced ROS levels | inhibited the activation of caspase-3 | significantly increased the viability |

From patent publication US9446019B2, “Sparstolonin B based pharmaceutical agent for neuroblastoma treatment” (University of South Carolina, priority 2013, dated 2016)
